Article PMC11357661, “Gaining Insight into Mitochondrial Targeting: AUTAC-Biguanide as an Anticancer Agent” (Molecules, 2024)
Read-outs that look alike come from different tables or passages of the source. Values belong to the compound of their own block, whether it stands above or below them.

How the values were obtained:
[1] = system: mitochondria (TOMM20) in KP4 cells; assay: Immunofluorescence assay of TOMM20 (mitochondrial morphology); type: cell-based; conditions: KP4, 24 h; compound 6 200 µM, metformin 2 mM
Experimental: Immunofluorescence assay: KP4 cells were seeded at a density of 8 × 10^4 cells per well on top of microscope cover glasses in 6-well plates overnight. They were then treated with vehicle or the studied compounds for 24 h. The culture medium was removed, and cells were washed three times with cold PBS. A solution of 4% paraformaldehyde was added into the wells for fixation for 10 min. Cells were washed again three times with 0.1 M glycine in PBS, then incubated with a solution of 3% BSA and 0.2% […] in PBS for 5 min at room temperature. Cells were washed again three times with a solution of 3% BSA in PBS, then incubated overnight with the primary antibody TOMM20 (1:100 in PBS, pH 7.4, 3% BSA). Cells were washed three times with 3% BSA in PBS and incubated for 1 h with the secondary antibody AF488 (1:2000 in PBS, pH 7.4, 3% BSA). Cells were finally washed three times with 3% BSA in PBS. A drop of mounting medium for fluorescence with DAPI was used to adhere cover glasses to microscope slides.
Antibodies: • I. Tom20 Antibody (F-10) #sc-17764 (Santa Cruz Biotechnology, Dallas, TX, USA): 1:100, 3% BSA in 1X PBS; • II. Goat anti-Mouse IgG (H + L) Highly Cross-Adsorbed Secondary Antibody, Alexa Fluor™ 488 #A-11029 (ThermoFisher/Invitrogen, Waltham, MA, USA): 1:2000, 3% BSA in 1X PBS.

[2] = system: OXPHOS proteins (vATP5A, UQCR2, SDHB, COXII, NDUFB8) in KP4 cells; assay: Immunoblot of OXPHOS mitochondrial respiratory chain proteins; type: cell-based; conditions: KP4, 24 h of treatment
Experimental: (§1) Immunoblot analysis: For the protein degradation assay, cells were seeded at a density of 1 × 10^5 cells per well in 6-well plates overnight, and then treated with vehicle and compounds for 24 h. The culture medium was removed. Cells were washed twice with cold PBS and lysed with LAEMMLI 2X (BIO-RAD, Hercules, CA, USA, 4% SDS, 20% glycerol, 0.125 M Tris-HCl (pH 6.8)). Equal amounts of protein were separated via sodium dodecyl sulfate-polyacrylamide gel electrophoresis (SDS-PAGE) and transferred to nitrocellulose membranes. […] Membranes were washed again with TBST and incubated with the primary antibody overnight at 4 °C. After being washed with TBST three times, the membranes were incubated with the secondary antibody for 1 h. After being washed with TBST three times, membranes were visualized using chemiluminescence using a Western Lightning™ Plus Chemiluminescence Reagent.

[3] = system: PANC1 pancreatic cancer cells; assay: Cell proliferation assay (crystal violet), EC50 determination; type: cell-based; conditions: Homo sapiens, PANC-1
Experimental: (§2) Materials and methods for in vitro experiments: Absorbance measurements for EC50 determination were performed using a SpectraMax 190 microplates reader from Molecular Devices. Resulting data were analyzed with PRISM software (version 10.3.0) using curve fitting with non-linear regression (log(inhibitor) vs. response—variable slope (four parameters)). Statistical analyses were also performed using the PRISM software, using a one-way ANOVA test. Protein concentrations were determined using a Nanodrop 2000c spectrophotometer from Thermo Scientific (Waltham, MA, USA). A ChemiDoc MP Imaging System from BIO-RAD (Hercules, CA, USA) was used for imaging and analyzing Western blots. Resulting data were treated with Image Lab software (version 6.1).
(§3) Cells were seeded at a density of 1 × 10^3 cells per well for KP4 and PANC1, 4 × 10^3 for IMR90, and 2 × 10^3 for hTERT-HPNE in 96 well plates one day prior to treatments with vehicle and compounds for 72 h. The culture medium was removed. Cells were washed twice with cold PBS, and 1% glutaraldehyde was added to the wells for fixation for 10 min. Cells were then washed with water, stained with 0.2% crystal violet for 30 min at room temperature, washed with water, and then dried. The adherent crystal violet was solubilized in 10% acetic acid and the absorbance was read at a wavelength of 590 nm for the calculation of the cell viability.

[4] = system: IMR90 (lung fibroblasts, healthy cells); assay: as above; type: cell-based; conditions: for EC50: Homo sapiens, IMR-90, 72 h of treatment, mean ± SD; for effect on healthy cell line IMR90 (toxicity): at the concentrations examined
Experimental: as §2, §3

[5] = system: hTERT-HPNE (immortalized pancreatic cells, healthy cells); assay: as above; type: cell-based, Human; conditions: for EC50: Homo sapiens, 72 h of treatment, mean ± SD; for effect on healthy cell line hTERT-HPNE (toxicity): at the concentrations examined
Experimental: as §2, with “Resulting data were analyzed with PRISM software (version 10.3.0) using curve fitting with non-linear regression (log(inhibitor) vs. response—variable slope (four parameters)).” left out
Cell Lines: Human pancreatic normal epithelial (HPNE hTERT) cells were obtained from Dr. M. Ouellette (University of Nebraska Medical Center). IMR90 was obtained from Coriell Institute (I90-79). PANC1 was obtained from ATCC and KP4 from the Massachusetts General Hospital Center for Molecular Therapeutics (CMT), courtesy of Dr. Bardeesy. […] All cell lines tested negative for mycoplasma contamination. No unpublished de novo cell lines were used.
as §3

[6] = system: KP4 pancreatic cancer cells; assay: as above; type: cell-based; conditions: for impact on the growth of cancer cells: KP4 and PANC1
Experimental: as §2, with “Resulting data were analyzed with PRISM software (version 10.3.0) using curve fitting with non-linear regression (log(inhibitor) vs. response—variable slope (four parameters)).” left out
as §3

[7] = system: LC3-II in KP4 cells; assay: Immunoblot of LC3-I and LC3-II protein levels (autophagy); type: cell-based; conditions: KP4, 24 h; for LC3-II level: relative to DMSO, metformin 200 µM and 2 mM, 7 200 µM, 6 100 and 200 µM
Experimental: as §1, with “Cells were washed twice with cold PBS and lysed with LAEMMLI 2X (BIO-RAD, Hercules, CA, USA, 4% SDS, 20% glycerol, 0.125 M Tris-HCl (pH 6.8)).” left out

[8] = system: mitochondria in KP4 cells; assay: Cell fluorescence assay: mitochondrial morphology by MitoTracker Deep Red FM confocal microscopy; type: cell-based; conditions: for mitochondrial morphology (MTDR): metformin 2 mM, 7 1 mM, 6 50-200 µM
Experimental: Cell fluorescence assay: KP4 cells were seeded at a density of 8 × 10^4 cells per well on top of microscope cover glasses in 6-well plates overnight. They were then treated with vehicle or the studied compounds for 24 h. The culture medium was refreshed with a solution of the MitoTracker® Deep Red FM (100 nM in DMEM). After 30 min at 37 °C, the medium was removed. Cells were washed twice with PBS and a solution of 4% paraformaldehyde was added into the wells for fixation for 10 min. Cells were washed again three times with 0.1 M glycine in PBS. A drop of mounting medium for fluorescence with DAPI was used to adhere cover glasses to microscope slides.

[9] = 72 h of treatment, mean ± SD, read-out: EC50 PANC1
[10] = Homo sapiens, PANC-1, KP4 and PANC1, text summary, read-out: median effective concentration / concentration of toxic activity on pancreatic cancer cell lines
[11] = Pancreatic cancer cell, 72 h of treatment, mean ± SD, read-out: EC50 KP4
[12] = Pancreatic cancer cell, in Figure 2, read-out: EC50 KP4 (Figure 2)

SMILES: CN(C)C(=N)N=C(N)N [Met., Metformin, reference compound]
- mitochondrial morphology (TOMM20 immunofluorescence) [1]: mild fragmentation of the network
- levels of OXPHOS mitochondrial respiratory chain proteins [2]: did not appear to affect the levels
- EC50 [3, 9]: 3130 ± 1410 µM
- EC50 [4]: > 20000 µM
- effect on healthy cell line IMR90 (toxicity) [4]: no noticeable effect
- EC50 [5]: > 20000 µM
- EC50 [6, 10]: 1000 to 4000 µM
- EC50 [6, 11]: 1490 ± 550 µM
- EC50 [6, 12]: 2210 µM

SMILES: CCN(CC)CCCC(C)Nc1ccnc2cc(Cl)ccc12 (stereo not drawn) [chloroquine, reference compound]
- LC3-II level [7]: increase in LC3-II levels

- EC50 [3, 9]: > 5000 µM
- EC50 [6, 11]: > 5000 µM
SMILES: CC(=O)N[C@@H](CSc1nc2c(=O)[nH]c(N)nc2n1Cc1ccc(F)cc1)C(=O)O [compound 5]
- EC50 [4]: > 5000 µM
- effect on healthy cell line IMR90 (toxicity) [4]: without exhibiting toxicity
- EC50 [5]: 3510 ± 1450 µM
- effect on healthy cell line hTERT-HPNE (toxicity) [5]: appeared to affect
- impact on the growth of cancer cells [6]: no discernible impact

- EC50 [3, 9]: 150 ± 30 µM
- EC50 ([3]; in Figure 2, read-out: EC50 PANC1 (Figure 2)): 103 µM
- EC50 [6, 11]: 100 ± 30 µM
- EC50 [6, 12]: 74 µM
SMILES: CC(=O)NC(CSc1nc2c(=O)[nH]c(N)nc2n1Cc1ccc(F)cc1)C(=O)NCCCCCCNC(=N)NC(=N)N.O=CO (stereo not drawn) [compound 6]
- mitochondrial morphology (TOMM20 immunofluorescence) [1]: majority of cells assumed a punctate appearance
- cells displaying a fragmented or punctate mitochondrial network ([8]; KP4, 100 µM, 24 h of treatment, MTDR): more than 50%
- cells maintaining a filamentous network ([8]; KP4, 200 µM (doubling of 100 µM), 24 h, MTDR): < 10%
- MTDR fluorescence intensity ([8]; KP4, 24 h): decrease in fluorescence intensity
- mitochondrial morphology (MTDR) ([8]; KP4, 24 h): punctate configuration
- levels of OXPHOS mitochondrial respiratory chain proteins [2]: decrease in complex I and complex IV mitochondrial respiratory chain proteins
- EC50 [4]: > 1000 µM
- effect on healthy cell line IMR90 (toxicity) [4]: no adverse impact
- effect on lysosomal degradation of LC3B (LC3-II with and without chloroquine) ([7]; in the presence of chloroquine): does not affect the degradation of LC3B
- LC3-II level [7]: mild increase in LC3-II levels
- EC50 [5]: > 1000 µM
- effect on healthy cell line hTERT-HPNE (toxicity) [5]: no adverse impact
- EC50 [6, 10]: ~100 µM
- selectivity index (SI) ([6]; cancer cells over healthy cells, 72 h of treatment): >10

- EC50 [3, 9]: > 1000 µM
- EC50 [6, 11]: > 1000 µM
SMILES: CCCCCCNC(=O)C(CSc1nc2c(=O)[nH]c(N)nc2n1Cc1ccc(F)cc1)NC(C)=O (stereo not drawn) [compound 7]
- mitochondrial morphology (MTDR) ([8]; KP4, 24 h): predominantly formed a filamentous network
- levels of OXPHOS mitochondrial respiratory chain proteins [2]: no effect on OXPHOS proteins
- EC50 [4]: > 1000 µM
- effect on healthy cell line IMR90 (toxicity) [4]: without exhibiting toxicity
- LC3-II level [7]: elevate LC3-II levels
- EC50 [5]: 110 ± 20 µM
- effect on healthy cell line hTERT-HPNE (toxicity) [5]: appeared to affect
- impact on the growth of cancer cells [6]: no discernible impact
